# “Also recorded” adds a separate entry of the source.
# Key:
# [1] = tested on: V79 cells; assay: Clonogenicity, killing of V79 cells using photodynamic therapy (Table 3); format: cell-based, Chinese hamster
# Experimental: Using the cell culture methods described above, V79 cells Chinese hamster lung fibroblasts were treated with either 0.5 or 1.0 μM of the phthalocyanines listed in Table 3. About 18 hours thereafter, the cells were irradiated with increasing doses of 675 nm broad band red light from a 500 W tungsten-halogen lamp fitted with a 600 nm high pass filter, to determine the light dosage that would kill 90% of the phthalocyanine treated cells. Where 90% of the cells were not killed, the maximum percent of cells killed were determined, (expressed as % survival) and the related light dosage recorded.
# [2] = tested on: L5178Y-R (LY-R) cells; assay: Clonogenic survival of PDT-treated L5178Y-R cells (Tables 4 and 5, FIG. 3); format: cell-based, mouse; conditions: 0.5 μM
# Experimental: (§1) Mouse lymphoma L5178y-R (hereinafter also referred to as "LY-R") cells were grown in suspension culture as described in Ramakrishnan N., Oleinick, N. L. Clay, M. E., Horng, M. F., Antunez, A. R., and Evans H. H., DNA lesions and DNA degradation in mouse lymphoma L5178Y cells after photodynamic treatment sensitized by chloroaluminum phthalocyanine. Photochem. Photobiol. 50, 373-378, 1989 and Agarwal, M. L., Clay, M. E., Harvey, E. J., Evans, H. H., Antunez, A. R., and Oleinick, N. L. Photodynamic therapy induces rapid cell death by apoptosis in L5178Y mouse lymphoma cells. Cancer Res., 51, 5993-5996, 1991.
# (§2) The cells were used while in exponential growth. Stock solutions of either 0.5 or 1 mM of PcIV, PcXII, PcX, PcXVIII were prepared in dimethylformamide unless otherwise indicated and added to the 10 mL medium at a rate of 1 μL per mL. After allowing 18 hours for uptake of the phthalocyanine into the cells, the flasks containing the cultures were placed on a glass exposure tray above a 500-W tungsten-halogen lamp. The exposure tray was fitted with a 600-nm high-pass filter. Flasks were exposed to various fluences of red light (up to 30 kJ/m^2) at a fluence rate of approximately 74 W/m^2). After irradiation, the cells were collected by centrifugation.
# (§3) For measurement of clonogenic cell survival, aliquots were plated in medium containing soft agar as described in Ramakrishnan N., Oleinick, N. L. Clay, M. E., Horng, M. F., Antunez, A. R., and Evans H. H., DNA lesions and DNA degradation in mouse lymphoma L5178Y cells after photodynamic treatment sensitized by chloroaluminum phthalocyanine. Photochem. Photobiol. 50, 373-378, 1989. The aliquots were plated in sufficient numbers to produce 50-200 colonies. The dishes were kept in an incubator at 37° C. in an atmosphere of 5% CO2 and 95% air for 10-14 days to allow viable cells to form colonies. Colonies were counted by eye. Controls treated with the phthalocyanine alone had plating efficiencies of ~90%. The plating efficiencies of the treated cells are normalized to the plating efficiencies of control cells in each experiment. For measurement of the induction of apoptosis, DNA was isolated from the treated and control cells 2 hours after photodynamic therapy, subjected to electrophoresis on 1.5% agarose, stained with ethidium bromide, and visualized by UV transillumination, as described in Agarwal et. al. The results are shown in Tables 4, 5 and 6 and in FIG. 3.
# In Table 4 each phthalocyanine was present at 0.5 μM, and the normalized plating efficiencies are presented as mean and standard deviation at each fluence tested. […] This relative activity of these four phthalocyanines is the same as obtained from screening in V79 cells.
# PcXII when present in the culture medium at 0.5 μM requires less light, that is the lowest fluence, to kill either 50% […] of the cells. PcIV is about 80% as active as PcXII, PcX is 44% as active as PcXII and PcXVIII is 22% as active as PcXII.
# [3] = tested on: L5178Y cells; assay: Induction of apoptosis (DNA fragmentation) in L5178Y-R cells (Table 6); format: cell-based, mouse; conditions: 0.4 μM
# Experimental: as §1, §2, §3
# Cells were treated with various concentrations of the compounds listed in the table and various light fluences. DNA gels were prepared and examined for the characteristic "ladder" pattern of DNA fragments. For each Pc, the minimum total PDT dose tested (calculated as the product of the minimum phthalocyanine concentration and the minimum fluence) which produced visible DNA fragments is recorded. […] PcXVIII was also added at 0.5 and 1.0 μM.
# [4] = tested on: RIF-1 tumors; assay: PDT of RIF-1 implanted tumors (Table 7); format: in vivo, C3H/HeN mice; conditions: for effect on tumor volume / growth (in words): 1 mg/kg
# Experimental: The relative effectiveness at reducing tumor volume of selected phthalocyanine compounds at a given dosage was compared in vivo. RIF-1, i.e., radiation-induced fibrosarcoma, tumors were implanted into the backs of C3H/HeN mice. One tumor was implanted per mouse. Each of the phthalocyanine compounds listed in Table 7 was sonicated and vortexed in corn oil to produce a suspension. When the tumors reached […] in diameter and 2-3 mm in thickness, each mouse received 1 mg/kg in 0.1 ml of the corn oil, of the phthalocyanine suspension. For comparison, select mice received a conventional photosensitizer; either 5 mg/kg of chloroaluminum phthalocyanine tetrasulfonate, herein also referred to as "AlPcTS" in phosphate buffered saline or 5 mg/kg of Photofrin®-II in 5% dextrose. Twenty-four hours after the photosensitizers were administered, the tumors were irradiated with visible radiation delivered by an argon-pumped dye laser. The mice that received a phthalocyanine photosensitizer received light having a wavelength of 675 nm and the mice that received the Photofrin® II photosensitizer received light having a wavelength of 630 nm. Each tumor received 135 J/cm^2 of radiation. Tumor size was measured every day using calipers. The initial tumor volume was 50±10 mm^3. Tumor volume was calculated according to the hemiellipsoid model by the formula: [formula] Where l is length Where W is width
# [5] = tested on: V79 cells
# Experimental: V79 cells Chinese hamster lung fibroblasts were cultured using the cell culture methods described above. […] When the filters were dry, the phthalocyanines were extracted into ethanol and the absorption determined at the peak wavelength, usually 668 nm.
compound,measurement,setting,value
"CN(C)CCC[Si](C)(C)O[Si]1(O[Si](C)(C)CCCN(C)C)n2c3c4ccccc4c2N=C2N=C(N=c4c5ccccc5c(n41)=NC1=NC(=N3)c3ccccc31)c1ccccc12 [Compound XII, SiPc[OSi(CH3)2 (CH2)3 N(CH3)2]2]",LD 90,"[1]; 0.5 μM, 18 h, light dose killing 90% of cells",3.3 kJ/m^2
same,"photosensitizing activity, killing V79 cells (in words)",[1]; discussion of Table 3,most active at killing V79 cells
same,LD 90,[2]; fluence reducing survival to 10%,1.70 kJ/m^2
same,LD50,[2]; fluence reducing survival to 50%,1.11 kJ/m^2
same,photosensitizer activity in LY-R cells (in words),[2]; listed as PcXII,active photosensitizers; also recorded: most active compound of the phthalocyanines shown in Table 5
same,Minimum Demonstrated Condition to induce apoptosis: C × F,[3],1.2 μm × kJ/m^2
same,Minimum Demonstrated Condition to induce apoptosis: Fluence,[3],3.0 kJ/m^2
same,Doubling Time of Initial Tumor Volume after PDT,"[4]; 1 mg/kg in corn oil, 675 nm, 135 J/cm^2",20 days
same,effect on tumor volume / growth (in words),[4]; listed as Pc XII,significantly impair the growth of the tumors
same,effect on tumor volume / growth (in words),[4]; listed as PcXII,particularly effective in reducing tumor volume
same,Uptake (from Table 2),[5],1.6 n Moles/10^6 cells/μM
same,"Uptake into V79 cells, composite value",[5],1.6 n Moles/10^6 cells/μM
same,uptake by V79 cells (in words),[5],taken up particulary well

# Reference: US5484778A, “Phthalocyanine photosensitizers for photodynamic therapy and methods for their use” (priority 1993, dated 1996)
